Read-outs that look alike come from different tables or passages of the source.
Assays:
[1] = HEPES HBSS pH 7.4 + 5 or 10 µM polysorbate 20, 1% methanol, or 1% DMSO
[2] = Nonspecific zosuquidar adsorption to glass HPLC vials; type: physicochemical; settings: for nonspecific zosuquidar adsorption: 25% methanol in HEPES HBSS pH 7.4; for zosuquidar concentration found (theoretical 250 nM): HEPES HBSS pH 7.4 in glass vial
Method: Generally, when zosuquidar was diluted in aqueous solutions, less zosuquidar than expected was present according to HPLC-FL quantitation, when compared to the corresponding dilutions in water–organic solvent mixtures. […] These were further diluted in methanol or DMSO to 100 µM. For adsorption experiments, solutions of 0.5–49.5% v/v methanol or DMSO in HEPES HBSS pH 7.4 were prepared, along with HEPES HBSS pH 7.4 supplemented with 0.10, 1.0, 2.5, 5.0, 10, or 50 µM polysorbate 20 or 0.05% bovine serum albumin, as well as 10 mM MES HBSS pH 6.5, 10 mM ammonium acetate pH 4.5, 19 mM maleic acid buffer pH 6.5, and FaSSIF-V2. […] The vials were capped and vortexed for 1 min and equilibrated at ambient temperature for approximately 24 h before HPLC-FL analysis. The peak area of the samples was normalised to the peak area of control samples, which were considered to elicit 0% adsorption. […] Both vials were equilibrated at room temperature for at least 24 h. […] The solutions in both vials were then analysed directly by HPLC-FL.

[3] = Pharmacokinetic study in Sprague Dawley rats (oral gavage); type: in vivo; settings: for AUC(0-t) / Cmax / bioavailability / half-life: male, Sprague-Dawley, rat, plasma, po; for AUC(0-t): Zosuquidar AUC0–6h; for Cmax: Zosuquidar Cmax; for bioavailability: Zosuquidar bioavailability; for half-life: Zosuquidar t½
Method: The study was conducted according to the European Convention for the Protection of Vertebrate Animals used for Experimental and other Scientific Purposes (ETS no. 123) and Belgian law controlling the experiments on animals (Royal Decree of 29 May 2013 for the protection of laboratory animals). Animals were allowed minimum five days to acclimatise upon arrival from the supplier, and they were housed in polysulphone cages (58 × 52 × 20 cm) in groups of six provided with wooden sticks for enrichment. Animals had free access to Safe 04 Maintenance Diet (Safe, Rosenberg, Germany) and water during acclimatisation and during the study.
Male Sprague Dawley rats (Charles River, Dortmund, Germany) weighing 293–358 g were randomly assigned into six groups of six animals. Formulations were prepared as clear solutions in 40% v/v ethanol–water and 10 mL/kg was administered to each animal by oral gavage. […] Plasma samples were taken by tail vein puncture with a needle followed by collection in 32–64 µL micro haematocrit tubes (Vitrex Medical, Herlev, Denmark) at times 15, 30, and 45 min and 1, 2, 3, 4, and 6 h. Samples were centrifuged, and plasma was transferred into 10 µL end-to-end pipettes (Vitrex Medical, Herlev, Denmark) and immediately frozen at −80 °C until bioanalysis. Immediately after the study, animals were euthanised according to the principles of euthanasia stated in the AVMA Guidelines for the Euthanasia of Animals (American Veterinary Medical Association, 2020). Plasma samples were analysed by a previously described qualified LC-MS/MS method.
Pharmacokinetic parameters were calculated individually for each animal subject and pooled for statistical analysis. The plasma concentration at 15 min (C15min) was reported as an average of the plasma concentration of the six animals in each group. […] Elimination rate constants (ke) were calculated by linear regression of the linear part of the ln(plasma concentration) versus time profiles, and plasma half-life (t½) was calculated from ke:(3) t½=ln (2)/ke

[4] = cited from earlier work
P-gp = P-gp (Homo sapiens, UniProt P08183); assay: Calcein-AM assay in MDCKII-MDR1 cells; type: cell-based; design: Piet Borst (Netherlands Cancer Institute); host or cells: MDCKII
Method: Before the experiment, growth medium was removed by vacuum suction (Vacusip, Integra Biosciences, NH, USA), 100 µL HEPES HBSS pH 7.4 was added to each well with a multichannel pipette, and the cells were incubated on a Talboys 1000 MP incubating microplate shaker (Troemner, NJ, USA, 220 rpm, 37 °C).
A total of 170 µL of the test solutions could then be transferred from the 96-well plate to the cell-containing plate at the start of preincubation. […] Wells containing HEPES HBSS pH 7.4 only served as a positive control. The cells were preincubated with test solutions (serial and spike) for 10 min on a microplate shaker (37 °C, 220 rpm). To start the experiment, 30 µL 33.3 µM calcein-AM in HEPES HBSS pH 7.4 was added to each well with a multichannel pipette, and the plate was stirred for 1 min on a microplate shaker (37 °C, 220 rpm) before being transferred to a Fluostar Omega plate reader.
One column of wells was kept without cells to measure background fluorescence signals from the applied buffers and compounds.

[5] = 2 mg/kg, group D: zosuquidar 2.0 mg/kg + etoposide 20 mg/kg + 5.0% v/v polysorbate 20 oral
[6] = 6.3 mg/kg, group E: zosuquidar 6.3 mg/kg + etoposide 20 mg/kg + 5.0% v/v polysorbate 20 oral
[7] = 6.3 mg/kg, group F: zosuquidar 6.3 mg/kg + etoposide 20 mg/kg + 10% v/v polysorbate 20 oral
[8] = group G*: zosuquidar 2.0 mg/kg + etoposide 20 mg/kg oral
[9] = group H*: zosuquidar 6.3 mg/kg + etoposide 20 mg/kg oral

P-gp, sequence (P08183 whole entry): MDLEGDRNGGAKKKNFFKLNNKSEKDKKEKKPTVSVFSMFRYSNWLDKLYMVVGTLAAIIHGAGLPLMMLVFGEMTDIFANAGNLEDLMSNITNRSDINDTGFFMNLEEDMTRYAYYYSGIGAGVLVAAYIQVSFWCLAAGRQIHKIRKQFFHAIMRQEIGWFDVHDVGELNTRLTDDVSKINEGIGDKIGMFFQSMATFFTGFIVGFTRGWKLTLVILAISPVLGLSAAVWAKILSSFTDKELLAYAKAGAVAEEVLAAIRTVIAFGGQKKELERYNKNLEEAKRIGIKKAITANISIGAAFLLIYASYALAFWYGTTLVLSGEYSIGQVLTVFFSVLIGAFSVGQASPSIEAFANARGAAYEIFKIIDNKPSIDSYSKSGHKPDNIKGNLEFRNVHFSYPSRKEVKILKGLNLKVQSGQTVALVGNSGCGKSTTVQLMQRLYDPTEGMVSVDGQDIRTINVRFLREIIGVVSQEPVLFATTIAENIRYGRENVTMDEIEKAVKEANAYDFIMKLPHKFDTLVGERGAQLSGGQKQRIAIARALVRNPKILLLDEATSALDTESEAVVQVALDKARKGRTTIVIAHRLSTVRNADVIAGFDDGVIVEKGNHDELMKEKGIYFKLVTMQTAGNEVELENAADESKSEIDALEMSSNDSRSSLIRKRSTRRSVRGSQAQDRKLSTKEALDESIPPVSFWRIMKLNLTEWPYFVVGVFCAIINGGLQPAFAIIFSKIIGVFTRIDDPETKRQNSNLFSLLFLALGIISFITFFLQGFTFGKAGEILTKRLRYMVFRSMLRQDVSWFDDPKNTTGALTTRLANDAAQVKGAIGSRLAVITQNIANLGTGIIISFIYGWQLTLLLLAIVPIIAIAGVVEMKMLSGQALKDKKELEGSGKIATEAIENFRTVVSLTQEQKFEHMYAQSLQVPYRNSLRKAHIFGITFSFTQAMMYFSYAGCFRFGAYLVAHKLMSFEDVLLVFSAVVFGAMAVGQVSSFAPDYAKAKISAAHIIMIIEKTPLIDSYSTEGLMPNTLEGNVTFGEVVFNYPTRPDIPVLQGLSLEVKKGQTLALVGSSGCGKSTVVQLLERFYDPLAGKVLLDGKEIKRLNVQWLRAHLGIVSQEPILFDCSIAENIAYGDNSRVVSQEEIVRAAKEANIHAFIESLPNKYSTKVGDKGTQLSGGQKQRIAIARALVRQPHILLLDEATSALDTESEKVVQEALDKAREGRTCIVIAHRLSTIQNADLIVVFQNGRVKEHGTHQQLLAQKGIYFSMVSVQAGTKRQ

effect on solubility [1]: did not significantly affect | nonspecific zosuquidar adsorption ([2]; 500 nM zosuquidar): 2.19 ± 6.71% | zosuquidar adsorption ([2]; 500 nM zosuquidar, 50% DMSO in HEPES HBSS pH 7.4): −5.9 ± 1.1% | zosuquidar adsorption ([2]; 500 nM zosuquidar, FaSSIF-V2 pH 6.5): 13.6 ± 1.0% | zosuquidar adsorption ([2]; 500 nM zosuquidar, HEPES HBSS pH 7.4 + 0.5% methanol): 97.0 ± 0.6% | nonspecific zosuquidar adsorption ([2]; 0.75 µM zosuquidar): 6.83 ± 2.33% | nonspecific zosuquidar adsorption ([2]; 2.5 µM zosuquidar): 2.76 ± 0.22% | nonspecific zosuquidar adsorption ([2]; 7.5 µM zosuquidar): −0.10 ± 2.02% | nonspecific zosuquidar adsorption ([2]; 25 µM zosuquidar): 32.5 ± 0.7% | zosuquidar concentration found (theoretical 250 nM) ([2]; after transfer to a new vial): 38.1 ± 13.7 nM | zosuquidar concentration found (theoretical 250 nM) ([2]; without transfer): 282 ± 8 nM | Zosuquidar AUC0–6h ([3]; group B: zosuquidar 0.63 mg/kg + etoposide 20 mg/kg + 1.0% v/v polysorbate 20 oral): BLQ | Zosuquidar tmax, median [Q1; Q3] ([3]; group E: zosuquidar 6.3 mg/kg + etoposide 20 mg/kg + 5.0% v/v polysorbate 20 oral): 60 [56;120] min | AUC(0-t) [3, 5]: 18.9 ± 2.8 ng·h/mL | Cmax [3, 5]: 4.8 ± 0.5 ng/mL | bioavailability [3, 5]: 5.64 ± 0.83% | half-life [3, 5]: 3 ± 0.383 h | AUC(0-t) [3, 6]: 47 ± 3.7 ng·h/mL | AUC(0-t) [3, 7]: 56.8 ± 4.2 ng·h/mL | Cmax [3, 6]: 13.2 ± 1 ng/mL | Cmax [3, 7]: 16.6 ± 1.1 ng/mL | bioavailability [3, 6]: 4.45 ± 0.35% | bioavailability [3, 7]: 5.38 ± 0.4% | half-life [3, 6]: 2.53 ± 0.333 h | half-life [3, 7]: 2.45 ± 0.167 h | mean P-gp activity (P-gp; […] zosuquidar + 2.5 µM polysorbate 20, spike method): 61% | mean P-gp activity (P-gp; […] zosuquidar + 5 µM polysorbate 20, spike method): 46% | discrepancy of IC50, serial dilution vs spike method (P-gp; calcein-AM, zosuquidar alone): 60 fold
Structure (SMILES): O[C@@H](COc1cccc2ncccc12)CN1CCN([C@@H]2c3ccccc3[C@@H]3[C@H](c4ccccc42)C3(F)F)CC1 [zosuquidar]
Zosuquidar AUC0–6h ([4]; group F*: zosuquidar 0.63 mg/kg + etoposide 20 mg/kg oral): BLQ | Zosuquidar AUC0–6h [4, 8]: 8.67 ± 0.77 ng·h/mL | Zosuquidar Cmax [4, 8]: 2.10 ± 0.27 ng/mL | Zosuquidar bioavailability [4, 8]: 2.58 ± 0.23% | Zosuquidar tmax, median [Q1; Q3] [4, 8]: 120 [45;135] min | Zosuquidar t½ [4, 8]: 3.62 ± 0.45 h | Zosuquidar AUC0–6h [4, 9]: 43.6 ± 5.4 ng·h/mL | Zosuquidar Cmax [4, 9]: 10.9 ± 1.2 ng/mL | Zosuquidar bioavailability [4, 9]: 4.12 ± 0.51% | Zosuquidar tmax, median [Q1; Q3] [4, 9]: 90 [45;120] min | Zosuquidar t½ [4, 9]: 2.68 ± 0.217 h

Reference: paper PMC9865188 (Pharmaceutics, 2023)
